Measured values taken from article PMC12775434, “Ultra-large virtual screening unveils potent agonists of the neuromodulatory orphan receptor GPR139” (Nature Communications, 2025).
Where “and” joins values, the source holds several entries; their conditions need not be identical. Equal entries are not always repeated.

Experiments:
GPR139 [1] = molecular target: T1, GPR139 (Homo sapiens, UniProt Q6DWJ6); test: Ca2+ mobilization assay, agonist mode, stable GPR139-CHOk1 cell line; assay type: cell-based
T1 sequence (Q6DWJ6 1-353): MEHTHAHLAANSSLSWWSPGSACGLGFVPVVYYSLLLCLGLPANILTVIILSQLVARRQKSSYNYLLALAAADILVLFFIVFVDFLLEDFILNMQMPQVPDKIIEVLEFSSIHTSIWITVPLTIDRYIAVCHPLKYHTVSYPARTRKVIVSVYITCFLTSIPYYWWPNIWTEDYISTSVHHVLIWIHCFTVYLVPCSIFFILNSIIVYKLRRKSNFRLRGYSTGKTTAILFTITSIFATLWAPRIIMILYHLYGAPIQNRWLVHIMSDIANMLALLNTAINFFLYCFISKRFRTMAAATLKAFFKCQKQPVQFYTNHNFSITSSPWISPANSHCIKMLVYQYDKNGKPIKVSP
Method: Primary screening and pharmacological characterization of compounds were performed using a CHO-K1 cell line that stably expresses human GPR139 (GPR139-CHOk1). The GPR139-CHOk1 cell line was kindly provided by H. Lundbeck A/S, Denmark[24]. GPR139-CHOk1 cells were grown in Ham’s F-12 Kaighn’s Modification Medium (ThermoFisher #21127030) supplemented with 10% dialyzed fetal bovine serum (US origin, ThermoFisher #26400044), 100 units/mL Penicillin-Streptomycin (ThermoFisher #15140122), and 1 mg/mL Geneticin (ThermoFisher #11811031). […] M1R-CHOk1 cells were purchased from The Missouri S&T cDNA Resource Center (#CEM100TN00). M1R-CHOk1 cells were grown in Ham’s F12 Medium (ThermoFisher #21765029) supplemented with 10% fetal bovine serum (Brazilian origin, ThermoFisher #10270106), 100 units/mL Penicillin-Streptomycin, and 0.25 mg/mL Geneticin. HEK293A cells transiently transfected with GPR139 were used for additional pharmacological assessment of signaling pathways activated by GPR139. HEK239A cells were generously provided by Dr. Asuka Inoue, Tohoku University, Japan. HEK293A cells were grown in Dulbecco’s Modified Eagle Medium (ThermoFisher #31966047) supplemented with 10% dialyzed fetal bovine serum and 100 units/mL Penicillin-Streptomycin. Cell lines were maintained at 37 °C in humidified incubator equilibrated with 5% CO2.
(§1) 30,000 GPR139- or M1R-CHOk1 cells/well were seeded in black clear bottom tissue culture treated 96-well plates (Greiner #655090) and grown for 20–24 h. Cells were washed with HEPES buffer (Hank’s Balanced Salt Solution (HBBS) supplemented with 20 mM HEPES, 1 mM MgCl2, and 1 mM CaCl2; pH 7.4). Cells were loaded with 50 µL of 2 µM Fluo-4 AM dye (ThermoFisher #F14202) in HEPES buffer supplemented with 2.5 mM probenecid and 0.01% Pluronic F-68 (ThermoFisher #24040032) for 1 h at 37 °C. Cells were washed with HEPES buffer. 50 µL HEPES buffer supplemented with 2.5 mM probenecid was added, and the cells were incubated for 10 min at 37 °C before measurement. 50 µL test compounds diluted in HEPES buffer from DMSO stocks (final DMSO concentration of maximally 0.3%) were added automatically after baseline measurements. The intracellular calcium mobilization was measured on a FlexStation 3 Multimode Microplate Reader (Molecular Devices) at 37 °C with filters for excitation of 485 nm and emission of 525 nm.
(§2) Our primary compound screening protocol consisted of two subsequent steps that allowed to screen for agonists and antagonists simultaneously. In the first step, the screening compounds were applied at 10 µM to test for agonist activity (agonist mode). Following 20 min incubation with the compounds added in the first step, in the second step, an EC80 concentration (800 nM) of the reference agonist Lundbeck Cmp 1a was applied to test for antagonist activity (antagonist mode).
Pharmacological data and statistical analyses were performed in GraphPad Prism v9–10 (Graphpad Software Inc., San Diego, CA), which are also specifically described in the figure and table legends. The functional assay responses were normalized to buffer (0%) and Lundbeck Cmp 1a or JNJ-63533054 (100%), for Ca^2+ and IP1 experiments in the GPR139-CHOk1 stable cell line or Ca^2+, G protein activation, and arrestin-3 recruitment experiments in the HEK293A cells transiently transfected with GPR139, respectively. Data are from at least three independent experiments, unless stated otherwise. Concentration-response curves were fitted applying non-linear regression using the log (agonist) versus response model with variable slope. ANOVA was applied for comparing results and determining statistical significance.

GPR139 [2] = molecular target: T1, GPR139; test: Ca2+ mobilization assay, antagonist mode (EC80 800 nM Lundbeck Cmp 1a after 20 min preincubation), GPR139-CHOk1; assay type: cell-based
Method: as §1
as §2, with “(antagonist mode). In the agonist mode (first step) response is seen only with compounds having agonist activity (Cmp 1a), but not with non-receptor-binding compounds (Vehicle) or antagonists (NCRW0105-E06) (Supplementary Fig. 14). […] No antagonist compounds were identified in this study.” for “(antagonist mode).”

[3] = Agonist mode, individual replicates (Supplementary Figure 1)
[4] = individual replicates (Supplementary Figure 1)
[5] = Agonist mode, individual replicates (Supplementary Figure 4)
[6] = individual replicates (Supplementary Figure 4)
[7] = primary screen, 10 µM compound, agonist mode, three columns = independent experiments

Row | Compound | Ca2+ signal (% of Cmp 1a) (GPR139 [1]; [3]) | Ca2+ signal (% of Cmp 1a) (GPR139 [2]; [4]) | also measured
1 | C[C@H](NC(=O)C1(OCc2ccccc2)CCOCC1)c1ccccc1 [Compound 26, C[C@H](NC(=O)C1(CCOCC1)OCC=2C=CC=CC2)C=3C=CC=CC3] | 2.84 % of Cmp 1a and -5 % of Cmp 1a and 4.48 % of Cmp 1a | 89.3069 % of Cmp 1a and 86.2472 % of Cmp 1a and 83.3433 % of Cmp 1a | –
2 | Cc1ccc(C(C)NC(=O)Nc2ccc3c(c2)CCCC3=O)o1 (stereo not shown) [Compound 49, CC(NC(=O)NC=1C=CC=2C(=O)CCCC2C1)C3=CC=C(C)O3] | 20 % of Cmp 1a and 6 % of Cmp 1a and 32 % of Cmp 1a | 51.3038 % of Cmp 1a and 78.2883 % of Cmp 1a and 60.6272 % of Cmp 1a | –
3 | C[C@@H](NC(=O)CSc1nnc2n1CCCCC2)c1ccccc1 [Compound 53, C[C@@H](NC(=O)CSC1=NN=C2CCCCCN12)C=3C=CC=CC3] | 10 % of Cmp 1a and 6 % of Cmp 1a and 3.73 % of Cmp 1a | 70.6126 % of Cmp 1a and 69.0784 % of Cmp 1a and 84.522 % of Cmp 1a | –
4 | Cc1cc2c(=O)n(CC(O)C(C)c3ccccc3)cnc2cc1F (stereo not shown) [Compound 48, CC(C(O)CN1C=NC=2C=C(F)C(C)=CC2C1=O)C=3C=CC=CC3] | 3.29 % of Cmp 1a and 10 % of Cmp 1a and 6 % of Cmp 1a | 94.1087 % of Cmp 1a and 84.538 % of Cmp 1a and 82.6111 % of Cmp 1a | –
5 | O=C(NCC1CC=CCC1)Nc1cnn(-c2cnc3ccccc3n2)c1 (stereo not shown) [Compound 28, O=C(NCC1CCC=CC1)NC=2C=NN(C2)C=3C=NC=4C=CC=CC4N3] | -7.43 % of Cmp 1a and 8 % of Cmp 1a and 9 % of Cmp 1a | 78.5136 % of Cmp 1a and 66.4897 % of Cmp 1a and 98.5524 % of Cmp 1a | –
6 | CC(NC(=O)Cc1coc(-c2cccs2)n1)c1ccccc1 (stereo not shown) [Compound 1.44, CC(NC(=O)CC1=COC(=N1)C2=CC=CS2)C=3C=CC=CC3] | – | – | calcium mobilization response relative to Lundbeck Cmp 1a (GPR139 [1]; 10 µM compound, agonist mode): 43%; Ca2+ signal (% of Cmp 1a) (GPR139 [1]; [5]): 88 % of Cmp 1a and 15 % of Cmp 1a and 25 % of Cmp 1a; fold decrease in potency on substitution of the central oxadiazole ring (GPR139 [1]; Ca2+ mobilization): > 50 fold; EC50 (GPR139 [1]; GPR139-CHOk1, read-out: EC50, Ca2+ mobilization): > 10 µM; Ca2+ signal (% of Cmp 1a) (GPR139 [2]; [6]): -8 % of Cmp 1a and 68 % of Cmp 1a and 69 % of Cmp 1a
7 | C[C@@H](NC(=O)CSc1nc2cc(Cl)cnc2[nH]1)c1ccccc1 [Compound 63, C[C@@H](NC(=O)CSC1=NC=2C=C(Cl)C=NC2N1)C=3C=CC=CC3] | 14 % of Cmp 1a and 5 % of Cmp 1a and 16 % of Cmp 1a | 69.704 % of Cmp 1a and 80.7602 % of Cmp 1a and 71.5084 % of Cmp 1a | –
8 | CCn1c(Nc2ccn(C)n2)nnc1-c1n[nH]c(=O)c2ccccc12 [Compound 45, CCN1C(NC=2C=CN(C)N2)=NN=C1C3=NNC(=O)C=4C=CC=CC34] | 0.117 % of Cmp 1a and 7 % of Cmp 1a and 8 % of Cmp 1a | 78.1245 % of Cmp 1a and 83.0928 % of Cmp 1a and 73.9872 % of Cmp 1a | –
9 | CC1(C)COc2cc(NC(=O)NCc3cccnn3)ccc21 [Compound 52, CC1(C)COC=2C=C(NC(=O)NCC=3C=CC=NN3)C=CC21] | 1.65 % of Cmp 1a and 1.26 % of Cmp 1a and 1.78 % of Cmp 1a | 71.4617 % of Cmp 1a and 78.215 % of Cmp 1a and 78.5023 % of Cmp 1a | Ca2+ signal (% of Cmp 1a) (GPR139 [1]; [7]): 1.65 % of Cmp 1a and 1.26 % of Cmp 1a and 1.78 % of Cmp 1a
10 | O=C(NCc1cccnc1)c1cn(-c2cccc(Cl)c2)nn1 [Compound 35, ClC=1C=CC=C(C1)N2C=C(N=N2)C(=O)NCC=3C=CC=NC3] | 5.3 % of Cmp 1a and 12 % of Cmp 1a and 7.49 % of Cmp 1a | 84.5048 % of Cmp 1a and 71.7301 % of Cmp 1a and 84.4533 % of Cmp 1a | –
11 | C[C@H](NC(=O)c1ccc(=O)n(-c2ccc(F)cc2)n1)c1ccccc1 [Compound 16, C[C@H](NC(=O)C=1C=CC(=O)N(N1)C=2C=CC(F)=CC2)C=3C=CC=CC3] | -6 % of Cmp 1a and 42 % of Cmp 1a and 24 % of Cmp 1a | 74.1067 % of Cmp 1a and 36.0111 % of Cmp 1a and 92.3974 % of Cmp 1a | –
12 | O=C(Nc1ccnc(OCc2ccccc2)c1)C1Cc2ccccc21 (stereo not shown) [Compound 43, O=C(NC=1C=CN=C(OCC=2C=CC=CC2)C1)C3CC=4C=CC=CC34] | 0.84 % of Cmp 1a and 9 % of Cmp 1a and 13 % of Cmp 1a | 90.3553 % of Cmp 1a and 81.3074 % of Cmp 1a and 78.6074 % of Cmp 1a | –
13 | O=C(NCc1ccc(Cl)s1)c1ccnc(-n2cncn2)c1 [Compound 64, ClC1=CC=C(CNC(=O)C=2C=CN=C(C2)N3C=NC=N3)S1] | -4 % of Cmp 1a and -5 % of Cmp 1a and -0.942 % of Cmp 1a | 87.3464 % of Cmp 1a and 90.999 % of Cmp 1a and 82.6211 % of Cmp 1a | –
14 | COc1ccc(OCc2nc(CC(=O)NC(C)c3ccccc3)no2)cc1 (stereo not shown) [Compound 1.37, COC1=CC=C(OCC2=NC(CC(NC(C3=CC=CC=C3)C)=O)=NO2)C=C1] | – | – | Ca2+ signal (% of Cmp 1a) (GPR139 [1]; [5]): 65 % of Cmp 1a and 55 % of Cmp 1a and 21 % of Cmp 1a; Ca2+ signal (% of Cmp 1a) (GPR139 [2]; [6]): 36 % of Cmp 1a and 40 % of Cmp 1a and 37 % of Cmp 1a
15 | O=C(CCn1cncn1)Nc1ccc(Oc2ccc(Cl)cc2)nc1 [Compound 66, ClC=1C=CC(OC=2C=CC(NC(=O)CCN3C=NC=N3)=CN2)=CC1] | 6.43 % of Cmp 1a and -3.62 % of Cmp 1a and -6 % of Cmp 1a | 74.4571 % of Cmp 1a and 74.7932 % of Cmp 1a and 88.8781 % of Cmp 1a | –
16 | CC(CC(=O)N(CC(=O)N1CCCC1)CC1CCCO1)n1cccc1 (stereo not shown) [Compound 22, CC(CC(=O)N(CC1CCCO1)CC(=O)N2CCCC2)N3C=CC=C3] | 10 % of Cmp 1a and -5.34 % of Cmp 1a and 0.0706 % of Cmp 1a | 90.9616 % of Cmp 1a and 92.7534 % of Cmp 1a and 72.9128 % of Cmp 1a | –
17 | CC(O)CN(Cc1ccccc1)C(=O)NCc1ccc(Cl)o1 (stereo not shown) [Compound 19, CC(O)CN(CC=1C=CC=CC1)C(=O)NCC2=CC=C(Cl)O2] | 4 % of Cmp 1a and 5 % of Cmp 1a and 6.65 % of Cmp 1a | 78.3598 % of Cmp 1a and 79.4126 % of Cmp 1a and 77.319 % of Cmp 1a | Ca2+ signal (% of Cmp 1a) (GPR139 [1]; [7]): 4 % of Cmp 1a and 5 % of Cmp 1a and 6.65 % of Cmp 1a
18 | Cn1nc(-c2ccc(F)cc2F)cc1NC(=O)NCc1ccccn1 [Compound 42, CN1N=C(C=C1NC(=O)NCC=2C=CC=CN2)C=3C=CC(F)=CC3F] | 0.111 % of Cmp 1a and 2.67 % of Cmp 1a and 15 % of Cmp 1a | 73.5301 % of Cmp 1a and 76.7288 % of Cmp 1a and 79.4888 % of Cmp 1a | –
19 | Cc1ccc(C(=O)Nc2cccc(-c3nnc[nH]3)c2)c2c1CCC2 [Compound 61, CC=1C=CC(C(=O)NC=2C=CC=C(C2)C3=NN=CN3)=C4CCCC41] | -6 % of Cmp 1a and -0.901 % of Cmp 1a and -0.172 % of Cmp 1a | 50.3835 % of Cmp 1a and 83.4509 % of Cmp 1a and 72.5179 % of Cmp 1a | –
